Test results from US10722515B2, “Dual CLK/CDK1 inhibitors for cancer treatment” (SRI INTERNATIONAL, priority 2016, dated 2020).

Columns and labels:
JNK2α2(h) = biological target: T1, JNK2α2(h) (Homo sapiens, UniProt P45984); test: kinase profile, radiometric assay, JNK2α2; assay type: biochemical
T1 construct: purchased Eurofins, Dundee, Scotland
Protocol: (§1) Enzymatic biochemical activities were evaluated in radiometric protein kinase assays (Eurofins, Dundee, Scotland). Kinases are incubated with buffer, substrate and [γ-^33P]-ATP (specific activity approx. 500 cpm/pmol, concentration as required). The reaction is initiated by the addition of the MgATP mix. After incubation for 40 minutes at room temperature, the reaction is stopped by the addition of 3% phosphoric acid solution. 10 μL of the reaction is then spotted onto a P30 filtermat and washed three times for 5 minutes in 75 mM phosphoric acid and once in methanol prior to drying and scintillation counting.
(§2) All compounds are prepared to 50× final assay concentration in 100% DMSO. Positive control wells contain all components of the reaction with 2% DMSO. Blank wells contain all components of the reaction, with a reference inhibitor replacing the compound of interest. Each kinase is assigned a standard assay concentration of ATP within 20 μM of its apparent KM. Compounds were screened at 1 μM in duplicate or tested at 10 concentrations at half log dilution starting from 10 μM in singlicate. Dose response curves were fitted with four parameter logistic curve to obtain IC50 values. The average coefficient of variation (CV) of the conducted assay is 4.4%.

CLK1(h) = biological target: T2, CLK1(h) (Homo sapiens, UniProt P49759); test: radiometric protein kinase assay, CLK1; assay type: biochemical; settings: enzyme inhibition, radiometric, ATP 10 μM; read-out: IC50 (nM) CLK1
T2 construct: purchased Eurofins, Dundee, Scotland
Protocol: as §1, §2

Abl(h) = biological target: T3, Abl(h) (Homo sapiens, UniProt P00519); test: kinase profile, radiometric assay, Abl; assay type: biochemical
T3 construct: purchased Eurofins, Dundee, Scotland
T3 sequence (P00519 whole entry): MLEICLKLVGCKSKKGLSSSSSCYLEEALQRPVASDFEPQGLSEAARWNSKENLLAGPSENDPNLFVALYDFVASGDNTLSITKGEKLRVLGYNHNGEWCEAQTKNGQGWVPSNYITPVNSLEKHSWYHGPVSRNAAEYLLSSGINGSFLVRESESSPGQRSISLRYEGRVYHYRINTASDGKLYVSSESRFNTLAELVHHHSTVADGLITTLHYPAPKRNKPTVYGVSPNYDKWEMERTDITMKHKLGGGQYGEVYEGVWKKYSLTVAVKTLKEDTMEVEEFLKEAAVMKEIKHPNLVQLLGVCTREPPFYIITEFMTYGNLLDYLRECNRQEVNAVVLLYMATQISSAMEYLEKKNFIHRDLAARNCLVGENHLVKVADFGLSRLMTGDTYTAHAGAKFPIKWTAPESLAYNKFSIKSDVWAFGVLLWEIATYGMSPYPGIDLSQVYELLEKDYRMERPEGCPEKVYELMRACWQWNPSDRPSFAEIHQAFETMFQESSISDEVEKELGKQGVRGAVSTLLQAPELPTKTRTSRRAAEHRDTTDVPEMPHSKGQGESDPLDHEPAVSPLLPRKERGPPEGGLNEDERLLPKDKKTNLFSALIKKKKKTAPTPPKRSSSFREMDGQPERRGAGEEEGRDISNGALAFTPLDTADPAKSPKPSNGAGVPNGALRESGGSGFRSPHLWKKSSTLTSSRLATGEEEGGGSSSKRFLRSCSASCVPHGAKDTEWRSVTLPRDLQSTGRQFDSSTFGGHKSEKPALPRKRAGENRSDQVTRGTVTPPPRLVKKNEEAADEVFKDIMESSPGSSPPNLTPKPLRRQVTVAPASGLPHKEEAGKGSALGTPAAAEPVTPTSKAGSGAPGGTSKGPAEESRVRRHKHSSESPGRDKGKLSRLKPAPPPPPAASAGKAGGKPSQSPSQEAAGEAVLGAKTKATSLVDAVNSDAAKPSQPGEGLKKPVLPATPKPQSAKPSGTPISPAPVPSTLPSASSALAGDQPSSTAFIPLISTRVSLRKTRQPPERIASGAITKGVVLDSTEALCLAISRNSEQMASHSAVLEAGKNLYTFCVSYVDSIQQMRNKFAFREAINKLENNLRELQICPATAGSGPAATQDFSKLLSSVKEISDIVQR
Protocol: as §1, §2

[1] = system: PI3 Kinase (p110β/p85α)(h); test: kinase profile, non-radiometric HTRF assay, PI3 kinases; assay type: biochemical, human; settings: at 1 μM
ALK(h) = biological target: T4, ALK(h) (Homo sapiens, UniProt Q9UM73); test: kinase profile, radiometric assay, ALK; assay type: biochemical
T4 construct: purchased Eurofins, Dundee, Scotland
T4 sequence (Q9UM73 19-1620): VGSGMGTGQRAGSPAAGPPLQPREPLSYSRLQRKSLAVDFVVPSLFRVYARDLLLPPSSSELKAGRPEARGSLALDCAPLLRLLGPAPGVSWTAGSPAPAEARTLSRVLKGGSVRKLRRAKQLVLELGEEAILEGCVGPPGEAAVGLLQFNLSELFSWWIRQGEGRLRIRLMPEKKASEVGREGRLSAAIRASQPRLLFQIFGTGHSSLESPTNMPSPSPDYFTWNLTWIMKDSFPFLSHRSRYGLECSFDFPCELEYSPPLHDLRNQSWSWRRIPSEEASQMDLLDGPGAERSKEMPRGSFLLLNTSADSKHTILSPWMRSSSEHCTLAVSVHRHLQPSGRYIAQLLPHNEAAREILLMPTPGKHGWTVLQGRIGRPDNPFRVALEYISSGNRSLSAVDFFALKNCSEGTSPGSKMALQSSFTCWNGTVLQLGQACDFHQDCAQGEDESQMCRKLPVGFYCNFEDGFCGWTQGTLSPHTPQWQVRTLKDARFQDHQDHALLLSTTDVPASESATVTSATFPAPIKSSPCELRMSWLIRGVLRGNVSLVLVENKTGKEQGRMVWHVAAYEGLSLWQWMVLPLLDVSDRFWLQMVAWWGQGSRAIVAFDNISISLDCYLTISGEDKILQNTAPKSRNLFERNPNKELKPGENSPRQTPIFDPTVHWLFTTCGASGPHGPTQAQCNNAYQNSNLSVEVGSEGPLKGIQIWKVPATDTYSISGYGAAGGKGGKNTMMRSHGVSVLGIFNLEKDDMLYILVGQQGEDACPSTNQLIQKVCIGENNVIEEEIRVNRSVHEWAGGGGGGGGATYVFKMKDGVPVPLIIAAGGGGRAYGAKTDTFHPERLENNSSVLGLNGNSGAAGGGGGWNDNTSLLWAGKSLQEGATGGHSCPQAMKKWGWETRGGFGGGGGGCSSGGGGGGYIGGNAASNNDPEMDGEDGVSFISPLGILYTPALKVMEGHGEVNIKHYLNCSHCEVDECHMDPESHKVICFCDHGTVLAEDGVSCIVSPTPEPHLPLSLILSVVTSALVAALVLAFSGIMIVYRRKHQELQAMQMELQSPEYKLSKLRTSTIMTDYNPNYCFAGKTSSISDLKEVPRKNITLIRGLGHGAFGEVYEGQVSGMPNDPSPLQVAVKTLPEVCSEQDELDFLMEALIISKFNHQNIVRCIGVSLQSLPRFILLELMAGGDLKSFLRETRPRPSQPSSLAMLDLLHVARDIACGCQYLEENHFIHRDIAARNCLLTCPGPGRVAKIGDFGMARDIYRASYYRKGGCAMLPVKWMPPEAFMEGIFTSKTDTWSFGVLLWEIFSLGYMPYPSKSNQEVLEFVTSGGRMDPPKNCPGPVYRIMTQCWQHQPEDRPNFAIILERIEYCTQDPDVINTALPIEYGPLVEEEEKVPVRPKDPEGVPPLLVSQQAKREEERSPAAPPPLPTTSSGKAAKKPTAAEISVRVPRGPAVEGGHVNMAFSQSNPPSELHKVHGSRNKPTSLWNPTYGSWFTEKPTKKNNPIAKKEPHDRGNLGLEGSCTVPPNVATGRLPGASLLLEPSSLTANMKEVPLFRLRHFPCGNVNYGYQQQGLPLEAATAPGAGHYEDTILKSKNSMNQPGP
Protocol: as §1, §2

Plk1(h) = biological target: T5, Plk1(h) (Homo sapiens, UniProt P53350); test: kinase profile, radiometric assay, Plk1; assay type: biochemical
T5 construct: purchased Eurofins, Dundee, Scotland
T5 sequence (P53350 whole entry): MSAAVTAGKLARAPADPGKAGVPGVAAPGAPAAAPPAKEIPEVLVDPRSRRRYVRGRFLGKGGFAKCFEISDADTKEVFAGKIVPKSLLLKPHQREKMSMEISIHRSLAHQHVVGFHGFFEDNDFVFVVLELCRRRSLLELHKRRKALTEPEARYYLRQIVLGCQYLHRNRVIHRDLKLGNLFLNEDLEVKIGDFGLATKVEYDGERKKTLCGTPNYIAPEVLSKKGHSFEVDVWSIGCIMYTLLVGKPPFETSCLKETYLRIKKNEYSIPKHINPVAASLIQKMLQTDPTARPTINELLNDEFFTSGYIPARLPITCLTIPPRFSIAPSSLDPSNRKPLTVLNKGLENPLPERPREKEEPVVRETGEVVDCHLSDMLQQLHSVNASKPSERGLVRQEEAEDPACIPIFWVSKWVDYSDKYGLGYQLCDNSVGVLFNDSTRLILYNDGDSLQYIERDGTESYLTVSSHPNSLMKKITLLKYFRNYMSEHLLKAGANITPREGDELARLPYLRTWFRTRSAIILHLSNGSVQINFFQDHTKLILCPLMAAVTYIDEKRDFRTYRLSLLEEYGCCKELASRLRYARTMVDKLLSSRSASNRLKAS
Protocol: as §1, §2

JAK3(h) = biological target: T6, JAK3(h) (Homo sapiens, UniProt P52333); test: kinase profile, radiometric assay, JAK3; assay type: biochemical
T6 construct: purchased Eurofins, Dundee, Scotland
T6 sequence (P52333 1-1124): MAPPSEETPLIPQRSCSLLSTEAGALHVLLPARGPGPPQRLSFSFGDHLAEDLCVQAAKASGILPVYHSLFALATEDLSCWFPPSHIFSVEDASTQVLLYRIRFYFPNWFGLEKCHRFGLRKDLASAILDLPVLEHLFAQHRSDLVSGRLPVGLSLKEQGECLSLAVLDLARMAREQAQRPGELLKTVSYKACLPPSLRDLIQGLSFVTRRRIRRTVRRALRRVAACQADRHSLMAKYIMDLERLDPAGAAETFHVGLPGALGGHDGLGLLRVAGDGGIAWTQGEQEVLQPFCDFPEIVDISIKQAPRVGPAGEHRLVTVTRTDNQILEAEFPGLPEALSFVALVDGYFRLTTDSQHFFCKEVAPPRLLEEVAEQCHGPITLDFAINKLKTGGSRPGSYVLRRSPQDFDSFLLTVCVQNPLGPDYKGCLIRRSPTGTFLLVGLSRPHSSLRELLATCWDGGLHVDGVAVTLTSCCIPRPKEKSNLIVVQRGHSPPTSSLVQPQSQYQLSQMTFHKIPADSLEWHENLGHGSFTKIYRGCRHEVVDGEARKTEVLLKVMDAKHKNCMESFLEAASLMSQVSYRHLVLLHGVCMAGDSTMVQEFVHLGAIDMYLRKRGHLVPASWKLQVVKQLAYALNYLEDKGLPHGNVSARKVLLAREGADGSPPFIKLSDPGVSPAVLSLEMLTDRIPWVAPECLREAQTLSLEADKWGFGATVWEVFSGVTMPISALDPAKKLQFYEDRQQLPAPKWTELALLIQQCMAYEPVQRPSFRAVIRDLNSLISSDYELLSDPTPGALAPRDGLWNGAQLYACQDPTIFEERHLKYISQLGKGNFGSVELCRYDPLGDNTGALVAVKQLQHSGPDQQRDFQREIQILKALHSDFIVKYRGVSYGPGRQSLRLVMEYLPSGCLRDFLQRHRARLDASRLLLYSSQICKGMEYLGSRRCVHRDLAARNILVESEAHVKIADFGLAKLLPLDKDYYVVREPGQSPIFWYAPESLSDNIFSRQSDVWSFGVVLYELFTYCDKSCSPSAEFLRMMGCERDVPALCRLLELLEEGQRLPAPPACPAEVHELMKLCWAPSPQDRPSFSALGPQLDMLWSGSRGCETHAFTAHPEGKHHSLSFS
Protocol: as §1, §2

ErbB2(h) = biological target: T7, ErbB2(h) (Homo sapiens, UniProt P04626); test: kinase profile, radiometric assay, ErbB2; assay type: biochemical
T7 construct: purchased Eurofins, Dundee, Scotland
T7 sequence (P04626 23-1255): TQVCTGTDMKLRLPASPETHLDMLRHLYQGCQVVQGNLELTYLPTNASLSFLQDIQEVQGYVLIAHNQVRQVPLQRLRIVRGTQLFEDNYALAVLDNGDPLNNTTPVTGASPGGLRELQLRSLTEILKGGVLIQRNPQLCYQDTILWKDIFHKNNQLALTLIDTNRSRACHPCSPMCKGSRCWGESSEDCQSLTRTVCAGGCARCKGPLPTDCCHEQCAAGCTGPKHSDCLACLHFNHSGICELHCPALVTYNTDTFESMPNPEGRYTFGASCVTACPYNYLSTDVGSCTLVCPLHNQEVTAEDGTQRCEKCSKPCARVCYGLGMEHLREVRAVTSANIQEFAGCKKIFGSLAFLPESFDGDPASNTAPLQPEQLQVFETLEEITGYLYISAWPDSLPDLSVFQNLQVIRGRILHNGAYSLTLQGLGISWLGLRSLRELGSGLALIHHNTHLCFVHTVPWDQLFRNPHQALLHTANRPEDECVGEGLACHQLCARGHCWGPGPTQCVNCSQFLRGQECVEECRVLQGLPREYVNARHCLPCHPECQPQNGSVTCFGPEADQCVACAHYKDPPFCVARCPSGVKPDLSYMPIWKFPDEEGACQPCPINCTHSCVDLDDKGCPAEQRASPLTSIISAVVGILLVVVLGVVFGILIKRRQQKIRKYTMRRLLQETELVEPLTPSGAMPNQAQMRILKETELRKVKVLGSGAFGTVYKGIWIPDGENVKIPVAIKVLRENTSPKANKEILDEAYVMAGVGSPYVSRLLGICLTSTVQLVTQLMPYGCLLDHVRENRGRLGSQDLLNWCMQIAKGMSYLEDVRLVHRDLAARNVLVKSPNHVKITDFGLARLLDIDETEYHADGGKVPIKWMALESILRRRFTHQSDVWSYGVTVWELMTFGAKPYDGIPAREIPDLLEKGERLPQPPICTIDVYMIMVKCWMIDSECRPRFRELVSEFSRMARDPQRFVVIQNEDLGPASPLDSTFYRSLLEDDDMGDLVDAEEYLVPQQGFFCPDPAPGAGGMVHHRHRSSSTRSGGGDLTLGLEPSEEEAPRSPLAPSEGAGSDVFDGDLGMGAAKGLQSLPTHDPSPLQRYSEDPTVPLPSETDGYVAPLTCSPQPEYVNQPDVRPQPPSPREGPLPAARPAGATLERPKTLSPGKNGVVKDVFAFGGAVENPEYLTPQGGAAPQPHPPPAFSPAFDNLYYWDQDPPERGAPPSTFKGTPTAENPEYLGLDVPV
Protocol: as §1, §2

JNK1α1(h) = biological target: T8, JNK1α1(h) (Homo sapiens, UniProt P45983); test: kinase profile, radiometric assay, JNK1α1; assay type: biochemical
T8 construct: purchased Eurofins, Dundee, Scotland
T8 sequence (P45983 1-384 isoform P45983-2): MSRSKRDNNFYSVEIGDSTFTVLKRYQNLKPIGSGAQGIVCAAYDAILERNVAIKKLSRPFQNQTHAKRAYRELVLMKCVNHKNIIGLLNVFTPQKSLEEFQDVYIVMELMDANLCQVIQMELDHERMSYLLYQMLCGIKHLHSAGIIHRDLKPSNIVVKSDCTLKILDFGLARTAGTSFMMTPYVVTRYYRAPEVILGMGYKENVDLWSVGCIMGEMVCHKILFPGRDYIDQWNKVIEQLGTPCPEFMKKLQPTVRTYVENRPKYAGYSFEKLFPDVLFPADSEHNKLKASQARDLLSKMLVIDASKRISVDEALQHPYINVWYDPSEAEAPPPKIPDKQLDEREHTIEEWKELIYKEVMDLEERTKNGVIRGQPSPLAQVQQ
Protocol: as §1, §2

[2] = first of three lines printed with this name (r24)
[3] = second of three lines with this name
[4] = third of three lines printed with this name (r26)

| Structure (SMILES) | inhibition at 1 µM (JNK2α2(h)) [%] | IC50 (CLK1(h)) [nM] | inhibition at 1 µM (Abl(h)) [%] | % Inhibition PI3 Kinase (p110β/p85α)(h) [1, 2] [%] | % Inhibition PI3 Kinase (p110β/p85α)(h) [1, 3] [%] | % Inhibition PI3 Kinase (p110β/p85α)(h) [1, 4] [%] | inhibition at 1 µM (ALK(h)) [%] | inhibition at 1 µM (Plk1(h)) [%] | inhibition at 1 µM (JAK3(h)) [%] | inhibition at 1 µM (ErbB2(h)) [%] | inhibition at 1 µM (JNK1α1(h)) [%] |
| --- | --- | --- | --- | --- | --- | --- | --- | --- | --- | --- | --- |
| CC(C)n1cnc2c(Nc3cccc(Cl)c3)nc(N[C@@H]3CCCC[C@@H]3N)nc21 [Compound 9, N^2-((1R,2S)-2-Aminocyclohexyl)-N^6-(3-Chlorophenyl)-9-Isopropyl-9H-Purine-2,6-Diamine] | 4 | 38 | 2 | 4 | 3 | 5 | -2 | 9 | 4 | 0 | -1 |
| CC(C)n1cnc2c(Nc3cccc(Cl)c3)nc(N[C@H]3CCCC[C@@H]3N)nc21 [Compound 8, N^2-((1S,2S)-2-Aminocyclohexyl)-V-(3-Chlorophenyl)-9-Isopropyl-9H-Purine-2,6-Diamine] | 1 | 78 | -2 | 5 | 2 | 2 | 7 | 49 | 0 | 2 | 3 |
| CC(C)n1cnc2c(Nc3cc(N)cc(Cl)c3)nc(NC3CCCCC3N)nc21 (racemic) [Compound 14, Racemic N^6-Cis-(3-Amino-5-Chlorophenyl)-N^2-(2-Aminocyclohexyl)-9-Isopropyl-9H-Purine-2,6-Diamine] | -6 | 18 | 8 | 4 | 0 | 1 | 10 | 60 | 0 | 3 | -6 |
